Data taken from patent US10940188B2, “Compounds and methods for treatment and prevention of Flavivirus infection” (priority 2016, dated 2021).
Where a name gives a salt, the structure may show the parent alone.

What was measured:
ZIKV MR766 NS1 = assay: microbe, parasite or virus in culture; assay type: cell-based, Zika virus; settings: Zika virus, HEK293, 48 h, read-out: NS1-IC50
Experimental: A one-step NS1 TR-FRET (Time-resolved fluorescence resonance energy transfer) assay for a screen of anti-ZIKV compounds was carried out. Human embryonic kidney cell line HEK293 cells were seeded into 384-well plates and infected with ZIKV MR766 at a MOI of 0.5 for 2 days. The FRET assay was performed with two clones of anti-NS1 antibody (ab) differentially labelled with donor and acceptor fluorophores.

HEK293 cells = assay: Toxicity IC50 (cell-killing activity) of the NS1 TR-FRET screen; assay type: cell-based, human; settings: cell-killing activity; for IC50: Homo sapiens, HEK293, read-out: Tox IC50
[1] = tested on: ZIKV-induced caspase 3/7 activity in human astrocytes; assay: Caspase 3/7 activity assay, ZIKV-infected human astrocytes; assay type: cell-based; settings: Astrocyte, ZIKV-infected human astrocytes; for IC50: read-out: Caspase 3 (IC50, uM) Astrocyte; for Emax: read-out: Caspase 3 (efficacy, %) Astrocyte
Experimental: (§1) Caspase-Glo 3/7 assay kit (catalog number G8092; Promega, Madison, Wis.) was used to detect caspase 3/7 activity. Reagents were reconstituted as described in the protocol from the manufacturer. Polystyrene plates (384-well and 1536-well; regular tissue culture treated and PDL coated) were purchased from Greiner Bio-One (Monroe, N.C.). Cells were seeded in 384- and 1536-well assay plates and cultured at 37° C. with 5% CO2 for 16 hours. ZIKV solution was added to cells, followed by incubation at 37° C. with 5% CO2 for 6 hours. Caspase-Glo 3/7 was added to each well, unless otherwise specified, and incubated at room temperature for 30 minutes. The luminescence intensity of the assay plates was measured using a ViewLux plate reader (PerkinElmer). Data were normalized by using the cell-containing wells without ZIKV as a negative control (0% induction of caspase 3/7 activity) and wells containing ZIKV infected cells that induced caspase 3/7 activity were used as a positive control (100% induction of caspase 3/7 activity). […]
(§2) Caspase-Glo 3/7 assay kit (Promega) was used to detect caspase 3/7 activity. Reagents were reconstituted as described in the protocol from the manufacturer. Cells were seeded in 384- and 1536-well assay plates and cultured at 37° C. with 5% CO2 for 16 hours. ZIKV solution was added to cells, followed by incubation at 37° C. with 5% CO2 for 6 hours. Caspase-Glo 3/7 was added to each well at a 1:1 ratio, unless otherwise specified, and incubated at room temperature for 30 minutes. The luminescence intensity of the assay plates was measured using a ViewLux plate reader (PerkinElmer). Data was normalized by using the cell-containing wells without ZIKV as a negative (0% induction of caspase 3/7 activity) control and wells containing ZIKV infected cells that induced caspase 3/7 activity were used as a positive control (100% induction of caspase 3/7 activity). […]

[2] = tested on: ZIKV-induced caspase 3/7 activity in SNB-19 cells; assay: Caspase 3/7 activity assay, ZIKV-infected SNB-19 cells; assay type: cell-based; settings: Homo sapiens, ZIKV-infected SNB-19 cells; for IC50: read-out: Caspase 3 (IC50, uM) SNB-19; for Emax: read-out: Caspase 3 (efficacy, %) SNB-19
Experimental: as §1, §2

[3] = tested on: ZIKV-induced caspase 3/7 activity in hNPCs; assay: Caspase 3/7 activity assay, ZIKV-infected hNPCs; assay type: cell-based; settings: Homo sapiens, ZIKV-infected hNPCs; for IC50: read-out: Caspase 3 (IC50, uM) NPCs; for Emax: read-out: Caspase 3 (efficacy, %) NPCs
Experimental: Caspase-Glo 3/7 assay kit (catalog number G8092; Promega, Madison, Wis.) was used to detect caspase 3/7 activity. Reagents were reconstituted as described in the protocol from the manufacturer. Polystyrene plates (384-well and 1536-well; regular tissue culture treated and PDL coated) were purchased from Greiner Bio-One (Monroe, N.C.). Cells were seeded in 384- and 1536-well assay plates and cultured at 37° C. with 5% CO2 for 16 hours. ZIKV solution was added to cells, followed by incubation at 37° C. with 5% CO2 for 6 hours. Caspase-Glo 3/7 was added to each well, unless otherwise specified, and incubated at room temperature for 30 minutes. The luminescence intensity of the assay plates was measured using a ViewLux plate reader (PerkinElmer). Data were normalized by using the cell-containing wells without ZIKV as a negative control (0% induction of caspase 3/7 activity) and wells containing ZIKV infected cells that induced caspase 3/7 activity were used as a positive control (100% induction of caspase 3/7 activity).
Human NPCs were seeded onto PDL coated 1536-well assay plates at 250 cells per 3 μl/well and incubated at 37° C. in 5% CO2 for 16 hours. Test compounds dissolved in DMSO were transferred to assay plates at a volume of 23 nl/well by an automated pintool workstation (Wako Automation, San Diego, Calif.). Compounds were incubated with cells for 30 minutes at 37° C. in 5% CO2, immediately followed by the addition of 2 μl/well of ZIKV. Incubation time of compound-treated cells with ZIKV varied based on assay format. Experiments measuring virus-induced caspase 3/7 activity required a 6 hour incubation of ZIKV in the presence compounds at 37° C. in 5% CO2. Following this incubation, 3.5 μl/well of caspase 3/7 reagent mixture was added to assay plates. The plates were incubated for 30 minutes at room temperature, and the resultant luminescence signal was measured using a ViewLux plate reader (Perkin Elmer). Experiments measuring virus-induced cell death required a 72-hour incubation of ZIKV in the presence of compounds at 37° C. in 5% CO2. Following this incubation, 3.5 μl/well of ATP content detection reagent was added to assay plates, incubated for 30 minutes at the room temperature, and the resultant luminescence signal was measured in a ViewLux plate reader.
Caspase-Glo 3/7 assay kit (Promega) was used to detect caspase 3/7 activity. Reagents were reconstituted as described in the protocol from the manufacturer. Cells were seeded in 384- and 1536-well assay plates and cultured at 37° C. with 5% CO2 for 16 hours. ZIKV solution was added to cells, followed by incubation at 37° C. with 5% CO2 for 6 hours. Caspase-Glo 3/7 was added to each well at a 1:1 ratio, unless otherwise specified, and incubated at room temperature for 30 minutes. The luminescence intensity of the assay plates was measured using a ViewLux plate reader (PerkinElmer). Data was normalized by using the cell-containing wells without ZIKV as a negative (0% induction of caspase 3/7 activity) control and wells containing ZIKV infected cells that induced caspase 3/7 activity were used as a positive control (100% induction of caspase 3/7 activity).
Human NPCs were seeded onto PDL coated 1536-well assay plates at 250 cells per 3 μl/well and incubated at 37° C. in 5% CO2 for 16 hours. Test compounds dissolved in DMSO were transferred to assay plates at a volume of 23 nl/well by an automated pintool workstation (Wako Automation, San Diego, Calif.). Compounds were incubated with cells for 30 minutes at 37° C. in 5% CO2, immediately followed by the addition of 2 μl/well of ZIKV. Incubation time of compound-treated cells with ZIKV varied based on assay format. Experiments measuring virus induced caspase 3/7 activity required a 6 hour incubation of ZIKV in the presence compounds at 37° C. in 5% CO2. […]

[4] = tested on: ZIKV-induced cell death in human astrocytes; assay: ATP cell viability assay for ZIKV-induced cell death, human astrocytes; assay type: cell-based; settings: ZIKV-infected human astrocytes; for IC50: Astrocyte, read-out: Cell viability (IC50, uM) Astrocyte
[5] = tested on: ZIKV-induced cell death in SNB-19 cells; assay: ATP cell viability assay for ZIKV-induced cell death, SNB-19 cells; assay type: cell-based, human; settings: ZIKV-infected SNB-19 cells; for IC50: Homo sapiens, read-out: Cell viability (IC50, uM) SNB-19
Experimental: (§3) The reagent was reconstituted and prepared as described by the manufacturer. In order to measure the cell death caused by ZIKV infection, cells were cultured for 16 hours at 37° C. with 5% CO2 in assay plates, followed by the addition of ZIKV solution and incubation at 37° C. with 5% CO2 for 72 hours. ATPlite, the ATP monitoring reagent, was then added to the assay plates and they were incubated for 15 minutes. The resulting luminescence was measured using the ViewLux plate reader (Perkin Elmer). Data were normalized using the wells without cells as a control for 100% cell killing, and cell-containing wells without ZIKV infection were used as full cell viability (0% cell killing). […]
as §3, with “The ATPlite luminescence assay system assay kit (PerkinElmer) was used to determine cell viability. The reagent” for “The reagent”, “by the manufacture. In order” for “by the manufacturer. In order”, “followed by addition of” for “followed by the addition of”, “plates and incubated for” for “plates and they were incubated for”, “Elmer). Data was normalized using” for “Elmer). Data were normalized using”

Row | Structure (SMILES) | IC50 (ZIKV MR766 NS1) [µM] | IC50 (HEK293 cells) [µM] | Tox IC50 (HEK293 cells) | IC50 [1] [µM] | Emax [1] [%] | IC50 [2] [µM] | Emax [2] [%] | IC50 [3] [µM] | Emax [3] [%] | Cell viability (efficacy, %) Astrocyte [4] [%] | Cell viability (efficacy, %) SNB-19 [5] [%] | IC50 [5] [µM] | IC50 [4] [µM]
1 | O=c1[nH]c(=O)n([C@H]2C[C@H](O)[C@@H](CO)O2)cc1F [Floxuridine] | 0.918 | 60 | – | – | – | – | – | – | – | – | – | – | –
2 | C[C@H]1O[C@@H](O[C@H]2[C@@H](O)C[C@H](O[C@H]3[C@@H](O)C[C@H](O[C@H]4CC[C@@]5(C)[C@H](CC[C@@H]6[C@@H]5C[C@@H](O)[C@]5(C)[C@@H](C7=CC(=O)OC7)CC[C@]65O)C4)O[C@@H]3C)O[C@@H]2C)C[C@H](O)[C@@H]1O [Digoxin] | 0.152 | 60 | – | – | – | – | – | – | – | – | – | – | –
3 | C=CC[C@@H]1/C=C(\C)C[C@H](C)C[C@H](OC)[C@H]2O[C@@](O)(C(=O)C(=O)N3CCCC[C@H]3C(=O)O[C@H](/C(C)=C/[C@@H]3CC[C@@H](O)[C@H](OC)C3)[C@H](C)[C@@H](O)CC1=O)[C@H](C)C[C@@H]2OC [FK-506] | 0.104 | – | – | – | – | – | – | – | – | – | – | – | –
4 | CC[C@@H]1C(=O)N(C)c2cnc(Nc3ccc(C(=O)NC4CCN(C)CC4)cc3OC)nc2N1C1CCCC1 [BI-2536] | – | – | No | – | – | – | – | – | – | – | – | – | –
5 | O=c1c(-c2ccc(O)cc2)coc2cc(O[C@@H]3O[C@H](CO)[C@@H](O)[C@H](O)[C@H]3O)cc(O)c12 [Genistin] | – | – | – | 25.9 | 60.2 | 23.1 | 58.1 | 17.3 | 58.6 | 0.0 | 0.0 | – | –
6 | Cc1oncc1C(=O)Nc1ccc(C(F)(F)F)cc1 [Leflunomide] | – | – | – | 4.35 | 98.1 | 3.27 | 106 | 1.38 | 97.8 | 0.0 | 0.0 | – | –
7 | O=C1C[C@@H](c2ccc(O)cc2)Oc2cc(O)cc(O)c21 [Naringenin] | – | – | – | 17.3 | 65.2 | 15.5 | 66.3 | 15.5 | 63.4 | 0.0 | 0.0 | – | –
8 | O=C(O)[C@@H](c1ccc(OCc2ccc3ccccc3n2)cc1)C1CCCC1 [Veliflapon] | – | – | – | 9.2 | 65.9 | 13.8 | 70 | 9.75 | 74.3 | 0.0 | 0.0 | – | –
9 | COc1ccc(-c2coc3cc(O)ccc3c2=O)cc1 [Formononetin] | – | – | – | 14.6 | 94.7 | 12.3 | 104 | 10.9 | 88.3 | 0.0 | 0.0 | – | –
10 | COc1cccc2c1C(=O)c1c(O)c3c(c(O)c1C2=O)C[C@@](O)(C(=O)CO)C[C@@H]3O[C@H]1C[C@H](N)[C@@H](O)[C@H](C)O1 [Epirubicin hydrochloride] | 0.492 | – | – | – | – | – | – | – | – | – | – | – | –
11 | CC(/C=C1\SC(=S)N(CC(=O)O)C1=O)=C\c1ccccc1 [Epalrestat] | – | – | – | 19.5 | 93.3 | 20.6 | 79.2 | 15.5 | 72.1 | 0.0 | 82.1 | 5.48 | –
12 | CC(=O)Oc1ccccc1C(=O)Nc1ncc([N+](=O)[O-])s1 [Nitazoxanide] | – | – | – | 2 | 90.3 | 2.24 | 86.4 | 1.26 | 82.3 | 53.6 | 62.1 | 23.7 | 31.6
13 | COc1cccc2c1C(=O)c1c(O)c3c(c(O)c1C2=O)C[C@@](O)(C(=O)CO)C[C@@H]3O[C@H]1C[C@H](N)[C@H](O[C@@H]2CCCCO2)[C@H](C)O1 [Pirarubicin] | – | – | – | 13.8 | 59.8 | 20.6 | 63.9 | – | 51.5 | 0.0 | 0.0 | – | –
14 | CCC(CC)CC1(C(=O)Nc2ccccc2SC(=O)C(C)C)CCCCC1 [Dalcetrapib] | – | – | – | – | 0 | – | 50.2 | 35.5 | 50.2 | 45.7 | 110 | 35.5 | 47.3
